Experiments:
Assay type in all cases: in vivo
[1] = tested on: galium (catchweed bedstraw, Galium aparine); experiment: Test C preemergence, plant response rating
[2] = tested on: kochia (Kochia scoparia); experiment: Test C preemergence, plant response rating
[3] = tested on: windgrass (Apera spica-venti); experiment: Test C preemergence, plant response rating
[4] = tested on: Canada thistle (Cirsium arvense); experiment: Test C postemergence, plant response rating; conditions: for Canada Thistle plant response rating: scale 0 to 100 (0 no effect, 100 complete control)
Summary of the method: (§1)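 Visual injury score, 0 = no effect, 100 = complete control, assigned against untreated controls after 13 to 15 d in the greenhouse. Compounds were applied in a surfactant-containing non-phytotoxic solvent mix, preemergence to seeded loam/sand or silt loam soil, or postemergence to 1- to 4-leaf plants (2 to 18 cm).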

[5] = tested on: field poppy (Papaver rhoeas); experiment: Test C postemergence, plant response rating; conditions: for Field Poppy plant response rating: scale 0 to 100 (0 no effect, 100 complete control)
Summary of the method: as §1

[6] = tested on: wild mustard (Sinapis arvensis); experiment: Test C postemergence, plant response rating; conditions: for Mustard, Wild plant response rating: scale 0 to 100 (0 no effect, 100 complete control)
Summary of the method: as §1

[7] = tested on: field violet (Viola arvensis); experiment: Test C postemergence, plant response rating; conditions: for Field Violet plant response rating: scale 0 to 100 (0 no effect, 100 complete control)
Summary of the method: as §1

[8] = tested on: nightshade (eastern black nightshade, Solanum ptycanthum); experiment: Test C postemergence, plant response rating; conditions: for Nightshade plant response rating: scale 0 to 100 (0 no effect, 100 complete control)
Summary of the method: as §1

[9] = tested on: wild poinsettia (Euphorbia heterophylla); experiment: Test C postemergence, plant response rating; conditions: for Poinsettia, Wild plant response rating: scale 0 to 100 (0 no effect, 100 complete control)
Summary of the method: as §1

[10] = tested on: buckwheat, wild (wild buckwheat, Polygonum convolvulus); experiment: Test C postemergence, plant response rating; conditions: for Buckwheat, Wild plant response rating: scale 0 to 100 (0 no effect, 100 complete control)
Summary of the method: as §1

[11] = tested on: pigweed, palmer (palmer pigweed, Amaranthus palmeri); experiment: Test C postemergence, plant response rating; conditions: for Pigweed, Palmer plant response rating: scale 0 to 100 (0 no effect, 100 complete control)
Summary of the method: as §1

[12] = tested on: windgrass (Apera spica-venti); experiment: Test C postemergence, plant response rating
Summary of the method: as §1

[13] = tested on: speedwell (bird's-eye speedwell, Veronica persica); experiment: Test C postemergence, plant response rating; conditions: for Speedwell plant response rating: scale 0 to 100 (0 no effect, 100 complete control)
Summary of the method: as §1

[14] = tested on: johnsongrass (Sorghum halepense); experiment: Test C postemergence, plant response rating; conditions: for Johnsongrass plant response rating: scale 0 to 100 (0 no effect, 100 complete control)
Summary of the method: as §1

[15] = tested on: geranium, cutleaf (cutleaf geranium, Geranium dissectum); experiment: Test C postemergence, plant response rating; conditions: for Geranium, Cutleaf plant response rating: scale 0 to 100 (0 no effect, 100 complete control)
Summary of the method: as §1

[16] = tested on: surinam grass (Brachiaria decumbens); experiment: Test C postemergence, plant response rating
Summary of the method: as §1

[17] = tested on: pigweed, palmer (palmer pigweed, Amaranthus palmeri); experiment: Test C preemergence, plant response rating
[18] = tested on: johnsongrass (Sorghum halepense); experiment: Test C preemergence, plant response rating
[19] = 125 g ai/ha, scale 0 to 100 (0 no effect, 100 complete control)

O=C(CCCC(F)(F)F)c1c(Oc2ncc(Cl)cn2)cccc1C(F)(F)F [Compound 125]
Plant response rating, Galium ([1]; 31 g ai/ha, scale 0 to 100): 5 | Plant response rating, Galium ([1]; 62 g ai/ha, scale 0 to 100): 30 | Plant response rating, Galium ([1]; 125 g ai/ha, scale of 0 to 100): 80 | Plant response rating, Kochia ([2]; 31 g ai/ha, scale 0 to 100): 60 | Plant response rating, Kochia ([2]; 62 g ai/ha, scale 0 to 100): 90 | Plant response rating, Kochia ([2]; 125 g ai/ha, scale of 0 to 100): 98 | Plant response rating, Windgrass ([3]; 31 g ai/ha, scale 0 to 100): 85 | Plant response rating, Windgrass ([3]; 62 g ai/ha, scale 0 to 100): 90 | Plant response rating, Windgrass ([3]; 125 g ai/ha, scale of 0 to 100): 100 | Plant response rating, Canada Thistle ([4]; 16 g ai/ha, scale of 0 to 100): 80 | Plant response rating, Canada Thistle ([4]; 31 g ai/ha, scale 0 to 100): 85 | Canada Thistle plant response rating ([4]; 62 g ai/ha): 90 | Canada Thistle plant response rating ([4]; 125 g ai/ha): 90 | Plant response rating, Field Poppy ([5]; 16 g ai/ha, scale of 0 to 100): 90 | Plant response rating, Field Poppy ([5]; 31 g ai/ha, scale 0 to 100): 95 | Field Poppy plant response rating ([5]; 62 g ai/ha): 100 | Field Poppy plant response rating ([5]; 125 g ai/ha): 100 | Plant response rating, Mustard, Wild ([6]; 16 g ai/ha, scale of 0 to 100): 90 | Plant response rating, Mustard, Wild ([6]; 31 g ai/ha, scale 0 to 100): 95 | Mustard, Wild plant response rating ([6]; 62 g ai/ha): 98 | Mustard, Wild plant response rating ([6]; 125 g ai/ha): 100 | Plant response rating, Field Violet ([7]; 16 g ai/ha, scale of 0 to 100): 90 | Plant response rating, Field Violet ([7]; 31 g ai/ha, scale 0 to 100): 98 | Field Violet plant response rating ([7]; 62 g ai/ha): 98 | Field Violet plant response rating ([7]; 125 g ai/ha): 98 | Plant response rating, Nightshade ([8]; 16 g ai/ha, scale of 0 to 100): 50 | Plant response rating, Nightshade ([8]; 31 g ai/ha, scale 0 to 100): 75 | Nightshade plant response rating ([8]; 62 g ai/ha): 85 | Nightshade plant response rating ([8]; 125 g ai/ha): 90 | Plant response rating, Poinsettia, Wild ([9]; 16 g ai/ha, scale of 0 to 100): 65 | Plant response rating, Poinsettia, Wild ([9]; 31 g ai/ha, scale 0 to 100): 65 | Poinsettia, Wild plant response rating ([9]; 62 g ai/ha): 75 | Poinsettia, Wild plant response rating ([9]; 125 g ai/ha): 85 | Plant response rating, Buckwheat, Wild ([10]; 16 g ai/ha, scale of 0 to 100): 70 | Plant response rating, Buckwheat, Wild ([10]; 31 g ai/ha, scale 0 to 100): 65 | Buckwheat, Wild plant response rating ([10]; 62 g ai/ha): 75 | Buckwheat, Wild plant response rating ([10]; 125 g ai/ha): 98 | Plant response rating, Pigweed, Palmer ([11]; 16 g ai/ha, scale of 0 to 100): 40 | Plant response rating, Pigweed, Palmer ([11]; 31 g ai/ha, scale 0 to 100): 85 | Pigweed, Palmer plant response rating ([11]; 62 g ai/ha): 80 | Pigweed, Palmer plant response rating ([11]; 125 g ai/ha): 85 | Plant response rating, Windgrass ([12]; 16 g ai/ha, scale of 0 to 100): 10 | Plant response rating, Windgrass ([12]; 31 g ai/ha, scale 0 to 100): 15 | Windgrass plant response rating [12, 19]: 35 | Plant response rating, Speedwell ([13]; 16 g ai/ha, scale of 0 to 100): 55 | Plant response rating, Speedwell ([13]; 31 g ai/ha, scale 0 to 100): 70 | Speedwell plant response rating ([13]; 62 g ai/ha): 98 | Speedwell plant response rating ([13]; 125 g ai/ha): 98 | Plant response rating, Johnsongrass ([14]; 16 g ai/ha, scale of 0 to 100): 5 | Plant response rating, Johnsongrass ([14]; 31 g ai/ha, scale 0 to 100): 5 | Johnsongrass plant response rating ([14]; 62 g ai/ha): 10 | Johnsongrass plant response rating ([14]; 125 g ai/ha): 25 | Plant response rating, Geranium, Cutleaf ([15]; 16 g ai/ha, scale of 0 to 100): 25 | Plant response rating, Geranium, Cutleaf ([15]; 31 g ai/ha, scale 0 to 100): 30 | Geranium, Cutleaf plant response rating ([15]; 62 g ai/ha): 55 | Geranium, Cutleaf plant response rating ([15]; 125 g ai/ha): 55 | Plant response rating, Surinam Grass ([16]; 16 g ai/ha, scale of 0 to 100): 5 | Plant response rating, Surinam Grass ([16]; 31 g ai/ha, scale 0 to 100): 10 | Surinam Grass plant response rating [16, 19]: 20 | Plant response rating, Pigweed, Palmer ([17]; 31 g ai/ha, scale 0 to 100): 100 | Plant response rating, Pigweed, Palmer ([17]; 62 g ai/ha, scale 0 to 100): 100 | Plant response rating, Pigweed, Palmer ([17]; 125 g ai/ha, scale of 0 to 100): 100 | Plant response rating, Johnsongrass ([18]; 31 g ai/ha, scale 0 to 100): 5 | Plant response rating, Johnsongrass ([18]; 62 g ai/ha, scale 0 to 100): 60 | Plant response rating, Johnsongrass ([18]; 125 g ai/ha, scale of 0 to 100): 75

From patent publication US11053204B2, “Pyrimidinyloxy benzene derivatives as herbicides” (FMC Corporation, priority 2015, dated 2021)
